Measurements: patent US8741834B2, “Dipeptoid prodrugs and the use thereof” (Bayer Intellectual Property GmbH, priority 2008, dated 2014)
Structures can show the parent of a compound that is named as a salt.

Assays:
[1] = Determination of the solubility in 5% strength aqueous dextrose solution; type: physicochemical; conditions: saline or isotonic, thermodynamic from solid, room temperature
Method: The test substance is suspended in 5% strength aqueous dextrose solution. This suspension is shaken at room temperature for 24 h. After ultracentrifugation at 224 000 g for 30 min, the supernatant is diluted with DMSO and analysed by HPLC. A two-point calibration plot of the test compound in DMSO is used for quantification.
Agilent 1100 with DAD (G1315A), quat. Pump (G1311A), autosampler CTC HTS PAL, degasser (G1322A) and column thermostat (G1316A); column: Phenomenex Gemini C18, 5 μm, 50 mm×2 mm; temperature: 40° C.; eluent A: water/phosphoric acid pH 2, eluent B: acetonitrile; flow rate: 0.7 ml/min; gradient: 0-0.5 min 85% A, 15% B; ramp 0.5-3 min 10% A, 90% B; 3-3.5 min 10% A, 90% B; ramp 3.5-4 min 85% A, 15% B; 4-5 min 85% A, 15% B.
Agilent 1100 with DAD (G1315A), quat. pump (G1311A), autosampler CTC HTS PAL, degasser (G1322A) and column thermostat (G1316A); column: VDSoptilab Kromasil 100 C18, 3.5 μm, 60 mm×2.1 mm; temperature: 30° C.; eluent A: water+5 ml of perchloric acid/liter, eluent B: acetonitrile; flow rate: 0.75 ml/min; gradient: 0-0.5 min 98% A, 2% B; ramp 0.5-4.5 min 10% A, 90% B; 4.5-6 min 10% A, 90% B; ramp 6.5-6.7 min 98% A, 2% B; 6.7-7.5 min 98% A, 2% B.

[2] = Stability in buffer at various pH values; type: physicochemical
Method: 0.3 mg of the test substance is weighed into a 2 ml HPLC vial and 0.5 ml of acetonitrile or acetonitrile/DMSO (9:1) is added. The substance is dissolved by putting the sample vessel in an ultrasonic bath for about 10 seconds. Then 0.5 ml of the respective buffer solution is added, and the sample is again treated in the ultrasonic bath.
pH 2: 0.03 mol of citric acid, 0.061 mol of sodium chloride and 0.0082 mol of hydrochoric acid ad 1 liter of water;
pH 4: 1 liter of Millipore water is adjusted to pH 4.0 with 1 N hydrochloric acid;
pH 5: 0.096 mol of citric acid and 0.2 mol of sodium hydroxide ad 1 liter of water;
pH 6: 0.06 mol of citric acid and 0.16 mol of sodium hydroxide ad 1 liter of water;
pH 7.4: 90.0 g of sodium chloride, 13.61 g of potassium dihydrogen phosphate and 83.35 g of 1 N sodium hydroxide solution are made up to 1 liter with water; this solution is then further diluted 1:10 with Millipore water.
pH 8: 0.013 mol of borax and 0.021 mol of hydrochloric acid ad 1 liter of water.
5 μl portions of the test solution are analyzed by HPLC for their content of unchanged test substance, and of active substance (A) formed, every hour over a period of 24 hours at 37° C. The percentage areas of the appropriate peaks are used for quantification.
The ratios of the peak areas (F) at the respective time points in relation to the peak areas at the starting time are shown in Table 2 for representative exemplary embodiments: […]

[3] = Oral pharmacokinetics in Wistar rats; type: in vivo; conditions: after oral administration
Method: (§1) On the day before administration of the substance, a catheter for obtaining blood is implanted in the jugular vein of the experimental animals (male Wistar rats, body weight 200-250 g) under Isofluran® anesthesia.
(§2) On the day of the experiment, a defined dose of the test substance is administered as solution into the stomach by gavage. Blood samples (8-12 time points) are taken through the catheter sequentially over the course of 24 h after administration of the substance. Plasma is obtained by centrifuging the samples in heparinized tubes. Acetonitrile is added to a defined plasma volume per time point to precipitate proteins. After centrifugation, test substance and, where appropriate, known cleavage products of the test substance in the supernatant are determined quantitatively using a suitable LC/MS-MS method.
The measured plasma concentrations are used to calculate pharmacokinetic parameters of the test substance and of the active ingredient compound (A) liberated therefrom, such as AUC, Cmax, T1/2 (half-life).

[4] = system: spontaneously hypertensive (SH rats); assay: Blood pressure and heart rate measurements on awake rats; type: in vivo, rat; conditions: per oral administration of 3 mg/kg
Method: Awake rats which are spontaneously hypertensive (SH rats) and which carry an internal transmitter capable of continual measurement both of blood pressure and also heart rate (telemetric capture of hemodynamic parameters) are administered test substances orally in various doses. Subsequently, blood pressure and heart rate, and their changes, are recorded over 24 hours.

[5] = i.v. pharmacokinetics in Wistar rats; type: in vivo; conditions: after i.v. administration
Method: as §1
as §2, with “tail vein using a Hamilton® glass syringe (bolus administration, duration of administration <10 s).” for “stomach by gavage.”
The measured plasma concentrations are used to calculate pharmacokinetic parameters of the test substance and of the active ingredient compound (A) liberated therefrom, such as AUC, Cmax, T1/2 (half-life) and CL (clearance).**

SMILES	solubility thermodynamic at 24 h [1] [µg/mL]	% test substance after 4 h [F(t = 4 h) × 100/F(t = 0 h)] ([2]; pH 4, 37° C.) [%]	% test substance after 24 h [F(t = 24 h) × 100/F(t = 0 h)] ([2]; pH 4, 37° C.) [%]	% test substance after 4 h [F(t = 4 h) × 100/F(t = 0 h)] ([2]; pH 7.4, 37° C.) [%]	% test substance after 24 h [F(t = 24 h) × 100/F(t = 0 h)] ([2]; pH 7.4, 37° C.) [%]	detectability of the test substance in plasma [3]	% test substance after 4 h [F(t = 4 h) × 100/F(t = 0 h)] ([2]; pH 5, 37° C.) [%]	% test substance after 24 h [F(t = 24 h) × 100/F(t = 0 h)] ([2]; pH 5, 37° C.) [%]	solubility at 24 h ([1]; 5% aqueous dextrose solution) [µg/mL]	Heart rate reduction (maximum lowering of heart rate) [4] [%]	% test substance after 4 h [F(t = 4 h) × 100/F(t = 0 h)] ([2]; pH 6, 37° C.) [%]	% test substance after 24 h [F(t = 24 h) × 100/F(t = 0 h)] ([2]; pH 6, 37° C.) [%]	detectability of the test substance in plasma [5]
CC[C@H](C)[C@H](N)C(=O)N[C@@H](C)C(=O)OC[C@H](COc1ccc(-c2c(C#N)c(N)nc(SCc3coc(-c4ccc(Cl)cc4)n3)c2C#N)cc1)OC(=O)[C@H](C)NC(=O)[C@@H](N)[C@@H](C)CC [Example 2, (2S)-3-{4-[2-Amino-6-({[2-(4-chlorophenyl)-1,3-oxazol-4-yl]methyl}sulfanyl)-3,5-dicyanopyridin-4-yl]phenoxy}propane-1,2-diyl (2S,2′S)-bis(2-{[(2S,3S)-2-amino-3-methylpentanoyl]amino}propanoate)dihydrochloride]	670	100	100	100	68	no longer detectable in plasma even at the first measurement point							
C[C@H](NC(=O)CN)C(=O)OC[C@H](COc1ccc(-c2c(C#N)c(N)nc(SCc3coc(-c4ccc(Cl)cc4)n3)c2C#N)cc1)OC(=O)[C@H](C)NC(=O)CN [Example 7, (2S)-3-{4-[2-Amino-6-({[2-(4-chlorophenyl)-1,3-oxazol-4-yl]methyl}sulfanyl)-3,5-dicyanopyridin-4-yl]phenoxy}propane-1,2-diyl (2S,2′S)-bis{2-[(aminoacetyl)amino]propanoate}dihydrochloride]		100	100	0	0	no longer detectable in plasma even at the first measurement point	98	83					
C[C@H](NC(=O)[C@@H]1CCCN1)C(=O)OC[C@H](COc1ccc(-c2c(C#N)c(N)nc(SCc3coc(-c4ccc(Cl)cc4)n3)c2C#N)cc1)OC(=O)[C@H](C)NC(=O)[C@@H]1CCCN1 [Example 8, (2S)-3-{4-[2-Amino-6-({[2-(4-chlorophenyl)-1,3-oxazol-4-yl]methyl}sulfanyl)-3,5-dicyanopyridin-4-yl]phenoxy}propane-1,2-diyl (2S,2′S)-bis(2-{[(2S)-pyrrolidin-2-ylcarbonyl]amino}propanoate)bis(trifluoroacetic acid) salt]		100	100	82	34	no longer detectable in plasma even at the first measurement point							
N#Cc1c(N)nc(SCc2coc(-c3ccc(Cl)cc3)n2)c(C#N)c1-c1ccc(OC[C@H](O)CO)cc1 [Example 8A, 2-Amino-6-({[2-(4-chlorophenyl)-1,3-oxazol-4-yl]methyl}sulfanyl)-4-(4-{[(2R)-2,3-dihydroxypropyl]oxy}phenyl)pyridine-3,5-dicarbonitrile]									< 1.2	10			
C[C@H](NC(=O)CCN)C(=O)OC[C@H](COc1ccc(-c2c(C#N)c(N)nc(SCc3coc(-c4ccc(Cl)cc4)n3)c2C#N)cc1)OC(=O)[C@H](C)NC(=O)CCN [Example 32, (2S)-3-{4-[2-Amino-6-({[2-(4-chlorophenyl)-1,3-oxazol-4-yl]methyl}sulfanyl)-3,5-dicyanopyridin-4-yl]phenoxy}propane-1,2-diyl (2S,2′S)-bis{2-[(3-aminopropanoyl)amino]propanoate}dihydrochloride]		100	100	96	81		100	100		10	99	98	no longer detectable in plasma even at the first measurement point
C[C@H](N)C(=O)N[C@@H](C)C(=O)OC[C@H](COc1ccc(-c2c(C#N)c(N)nc(SCc3coc(-c4ccc(Cl)cc4)n3)c2C#N)cc1)OC(=O)[C@H](C)NC(=O)[C@H](C)N [Example 33, (2S)-3-{4-[2-Amino-6-({[2-(4-chlorophenyl)-1,3-oxazol-4-yl]methyl}sulfanyl)-3,5-dicyanopyridin-4-yl]phenoxy}propane-1,2-diyl(2S,2′S)-bis(2-{[(2S)-2-aminopropanoyl]amino}propanoate)dihydrochloride]	620	100	100	29	0	no longer detectable in plasma even at the first measurement point	100	97		10	78	28	no longer detectable in plasma even at the first measurement point
